Test [1] has as its target T1, rat adrenergic α1B receptor (Rattus norvegicus, UniProt P15823).
T1 construct: obtained from Wistar Rat liver; from tissue; host or cells: Wistar rat liver
T1 sequence (P15823 1-515): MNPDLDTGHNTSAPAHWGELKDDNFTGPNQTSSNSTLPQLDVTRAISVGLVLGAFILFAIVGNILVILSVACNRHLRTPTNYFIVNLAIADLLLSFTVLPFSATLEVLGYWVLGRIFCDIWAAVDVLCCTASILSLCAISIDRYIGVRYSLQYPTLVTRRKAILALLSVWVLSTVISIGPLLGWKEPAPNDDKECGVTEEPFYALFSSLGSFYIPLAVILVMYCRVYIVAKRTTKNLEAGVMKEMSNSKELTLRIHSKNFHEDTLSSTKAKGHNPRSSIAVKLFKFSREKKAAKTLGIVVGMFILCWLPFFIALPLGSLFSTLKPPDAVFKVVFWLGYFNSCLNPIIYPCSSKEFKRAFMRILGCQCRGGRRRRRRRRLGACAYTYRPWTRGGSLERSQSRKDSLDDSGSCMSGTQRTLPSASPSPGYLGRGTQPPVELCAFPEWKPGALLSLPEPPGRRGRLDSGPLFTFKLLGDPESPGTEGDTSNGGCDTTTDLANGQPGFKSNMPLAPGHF
The experiment in a line: Adrenergic α1B radioligand binding ([3H]Prozosin). To be noted: for inhibition at 1 µM: read-out: Adrenergic α1B, inhibition of ligand binding (1 μM). The procedure:
To evaluate in radioligand binding assays the activity of compounds of the invention, rat adrenergic α1B receptor obtained from Wistar Rat liver (Garcia-S'ainz, J. A. et al., Biochem. Biophys. Res. Commun. 186:760, 1992; Michel A. D. et al., Br. J. Pharmacol. 98:883, 1989) in a modified Tris-HCl buffer (50 mM Tris-HCl buffer, pH 7.4, 0.5 mM EDTA) was used. Compounds of the invention were incubated with 0.25 nM [^3H]Prozosin for 60 minutes at 25° C. Non-specific binding was estimated in the presence of 10 μM phentolamine. Receptor proteins were filtered and washed, the filters were then counted to determine [^3H]Prozosin specifically bound. Compounds were screened at 1 μM or lower, using 1% DMSO as vehicle. Compounds of the invention were tested in this biochemical assay and percent inhibition of specific binding was determined.

The target in test [2] is T2, human recombinant adrenergic α2C receptor (Homo sapiens, UniProt P18825).
T2 construct: expressed in transfected cells; host or cells: insect Sf9 cells
T2 sequence (P18825 1-462): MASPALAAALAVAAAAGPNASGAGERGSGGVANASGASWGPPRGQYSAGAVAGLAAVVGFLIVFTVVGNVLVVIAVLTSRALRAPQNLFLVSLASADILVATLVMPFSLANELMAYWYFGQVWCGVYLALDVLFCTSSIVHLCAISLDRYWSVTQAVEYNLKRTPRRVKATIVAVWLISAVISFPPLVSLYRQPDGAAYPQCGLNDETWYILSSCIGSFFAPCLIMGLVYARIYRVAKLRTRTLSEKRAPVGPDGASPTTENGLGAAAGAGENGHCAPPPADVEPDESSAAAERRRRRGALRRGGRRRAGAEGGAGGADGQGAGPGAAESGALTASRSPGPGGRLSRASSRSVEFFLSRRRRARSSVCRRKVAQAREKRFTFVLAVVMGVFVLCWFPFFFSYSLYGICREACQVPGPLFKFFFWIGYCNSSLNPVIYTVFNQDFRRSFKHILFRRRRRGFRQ
Kind of test: Adrenergic α2C radioligand binding ([3H]MK-912). To be noted: for inhibition at 1 µM: read-out: Adrenergic α2C, inhibition of ligand binding (1 μM). The procedure:
To evaluate in radioligand binding assays the activity of compounds of the invention, human recombinant adrenergic α2C receptor expressed in insect Sf9 cells (Uhlen S et al. J Pharmacol Exp Ther. 271:1558, 1994) in a modified Tris-HCl buffer (50 mM Tris-HCl, pH 7.4, 12.5 mM MgCl2, 2 mM EDTA) was used. Compounds of the invention were incubated with 1 nM [^3H]MK-912 for 60 minutes at 25° C. Non-specific binding was estimated in the presence of 10 μM WB-4101. Receptor proteins were filtered and washed, the filters were then counted to determine [^3H]MK-912 specifically bound. Compounds were screened at 1 μM or lower, using 1% DMSO as vehicle. Compounds of the invention were tested in this biochemical assay and percent inhibition of specific binding was determined.

The target in test [3] is T3, human recombinant serotonin (5-Hydroxytryptamine) 5-HT5A receptor (Homo sapiens, UniProt P47898).
T3 construct: expressed in transfected cells; host or cells: CHO-K1 cells
Kind of test: Serotonin 5-HT5A radioligand binding ([3H]LSD). To be noted: read-out: Serotonin 5-HT5A, inhibition of ligand binding (1 μM). The procedure:
To evaluate in radioligand binding assays the activity of compounds of the invention, human recombinant serotonin (5-Hydroxytryptamine) 5-HT5A receptor expressed in Chinese hamster ovary (CHO-K1) cells (Rees, S. et al., FEBS Lett. 355:242, 1994) in a modified Tris-HCl buffer (50 mM Tris-HCl, pH 7.4, 10 mM MgCl2, 0.5 mM EDTA) was used. Compounds of the invention were incubated with 1.7 nM [^3H]Lysergic acid diethylamide (LSD) for 60 minutes at 37° C. Non-specific binding was estimated in the presence of 100 μM Serotonin (5-HT). Receptor proteins were filtered and washed, the filters were then counted to determine [^3H]LSD specifically bound. Compounds were screened at 1 μM or lower, using 1% DMSO as vehicle. Compounds of the invention were tested in this biochemical assay and percent inhibition of specific binding was determined. Biochemical assay results are presented as the percent inhibition of specific binding in Table 4.

Usually inhibition stands for the change of the read-out against control, counted positive when it falls.

T3 sequence (P47898 whole entry): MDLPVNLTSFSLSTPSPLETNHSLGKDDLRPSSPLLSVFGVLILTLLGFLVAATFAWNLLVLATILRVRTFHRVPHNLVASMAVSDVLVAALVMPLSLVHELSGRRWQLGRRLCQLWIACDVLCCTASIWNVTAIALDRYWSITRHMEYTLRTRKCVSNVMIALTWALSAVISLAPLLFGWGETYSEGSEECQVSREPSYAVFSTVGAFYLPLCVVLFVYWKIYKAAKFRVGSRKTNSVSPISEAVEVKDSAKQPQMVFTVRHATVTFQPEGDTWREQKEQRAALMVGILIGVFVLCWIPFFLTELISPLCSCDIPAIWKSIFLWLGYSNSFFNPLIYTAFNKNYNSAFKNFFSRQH

Turning to `Cc1ccc2c(c1)c1c(n2CCc2ccccc2)CC2CCCC1N2C` (stereo not shown) [Compound 56], the inhibition at 1 µM worked out at 80% in test [1], 55% in test [2] and 40% in test [3].
The matching figures for `CN1C2CCC1c1c(n(CCc3ccc(F)cc3)c3ccc(Cl)cc13)C2` (stereo not shown) [Compound 57]: 87%, 83% and 48%.
Take `Cc1ccc2c(c1)c1c(n2CCc2ccccc2)CC2CCC1N2C` (stereo not shown) [Compound 2]: the inhibition at 0.03 µM in test [1] (read-out: Adrenergic α1B, inhibition of ligand binding (0.03 μM)) was found to be 63%; in test [2] (read-out: Adrenergic α2C, inhibition of ligand binding (0.03 μM)), 14%. The inhibition at 0.3 µM amounted to 89% in test [1] (read-out: Adrenergic α1B, inhibition of ligand binding (0.3 μM)) and 69% in test [2] (read-out: Adrenergic α2C, inhibition of ligand binding (0.3 μM)). Also, the inhibition at 1 µM in test [1] was 99%; in test [2] it was 97%; in test [3], 86%.
Regarding `CN1C2CCC1c1c(n(CCc3ccc(Cl)cc3)c3ccc(Cl)cc13)C2` (stereo not shown) [Compound 58], the inhibition at 1 µM in test [1] was found to be 83%; in test [2] it was 89%; in test [3], 69%.
